# Experimental data: US5641762A, “Bone targeted inhibitors of carbonic anhydrase” (Research Corporation Technologies, Inc., priority 1994, dated 1997)
# Like-named read-outs stand apart in the source and are kept apart here.
# Experiments:
# [1] = Binding to hydroxyapatite; settings: for bound to hydroxyapatite: 10^-5 M, 30 minute incubation (FIG. 1)
# Protocol: A--Binding to Hydroxyapatite
# For these studies, 10^-5 M aqueous solutions of the various test agents were added to a slurry of hydroxyapatite (HA), the principle mineral constituent of bone. After a 30 minute incubation, HA was separated by centrifugation and treated with 1.0M phosphate buffer (pH=7) or 2.0M phosphate buffer (pH=7). Percentage of total drug bound and eluted was determined using UV-visible spectrophotometry.
# 1. Binding to hydroxyapatite.
# carbonic anhydrase = experiment: Carbonic anhydrase inhibition (modified micromethod, CO2/bicarbonate colour change time); type: biochemical; settings: for Potency as CA inhibitor: relative to acetazolamide = 100, Table 5; for carbonic anhydrase inhibition: before hydrolysis, final assay concentration 5×10^-6 M (FIG. 2)
# Protocol: B--Carbonic Anhydrase Inhibition
# A modification of the micromethod of Maven, J. Pharmacol. Exp. Ther. 130: 26-29 (1960) was used to assess carbonic anhydrase activity and inhibition. In essence, a bicarbonate solution was incubated at 0° C. in a vessel which was constantly bubbled with CO2. A pH indicator (phensulfophthalein) was included. The dependent variable was the amount of time required to achieve color change (addition of bicarbonate is defined as time zero). Addition of carbonic anhydase decreased reaction time. Further addition of enzyme inhibitors extended reaction time back to control values.
# All are tested before and after being subjected to hydrolyric conditions with the final assay concentration being 5×10^-6 M. For these experiments, the dependent variable was the amount of time required for acidification of a CO2 /bicarbonate buffer system to a defined endpoint. […] Finally, test drugs were added to enzyme-containing reaction mixtures, and any increase in reaction time was indicative of enzyme inhibition.
# physchem = settings: for chromatographic logP: reverse phase hplc lc-18-db, pH 2
# Protocol: Chromatographic characterization was accomplished using hydroxyapetite (HA) chromatography, silica gel thin layer chromatography and high performance reverse phase liquid chromatography (HPLC) with the following characteristics:
# Column: LC-18-DB (Supelco)/25 cm/5 um particles.
# Mobile phase: 9% tetrahydrofuran/9% CH3 CN/1% CH3 OH/81% 5 mM sodium phosphate, pH=2
# Detection: UV-visible absorbance 210-500 nm (photo-diode array scanning)
# This mode of analysis served simultaneously as a qualitative analytic procedure (full UV-vis spectrum) as well as providing a quantitative estimate of drug concentration.
# Chromatographic data was obtained using the HPLC system described.
# [2] = test system: rat calvaria (PTH-stimulated calcium release); experiment: In vitro bone organ culture, PTH-stimulated calcium release from calvaria; type: cell-based; settings: for PTH-stimulated calcium release from calvaria: 10^-5 M (FIG. 3)
# Protocol: Essentially, fetal or neonatal rat calvaria were excised and cultured in serum supplemented BGJb medium (GIBCO) containing HEPES buffer (hydroxyethylpiperazine-ethanesulfonate), penicillin and streptomycin. Bone samples were individually incubated in sterile multi-well plates at 37° C./100% relative humidity/95:5 air:CO2. If appropriate, bone may be radiolabeled by injection of mothers with ^45 CACl2 or pups with tritiated proline.
# 1. In vitro inhibition of bone resorption. Rat calvaria were cultured as described. Some cultures include the addition of parathyroid hormone (PTH) in the presence and absence of test compounds (10^-5 M).
# Solubility pH 7.6 = type: physicochemical
# [3] = pH 7.6
# [4] = cited from earlier work; for acidosis: systemic / metabolic acidosis
# [5] = test system: PTH-induced resorption of bone in culture; settings: cited from earlier work
# [6] = kidney intact animals; cited from earlier work
# [7] = test system: response to PTH (plasma calcium); settings: ISHR without parathyroids; cited from earlier work
# [8] = test system: PTH-induced bone resorption; settings: literature (Waite et al. 1970); cited from earlier work
# [9] = test system: PTH-induced bone resorption; experiment: In vivo Induced Secondary Hyperparathyroid Rat (ISHR); settings: for Blood Calcium: i.p. 24 h before nephrectomy, bled 4 h post nephrectomy, control 12.2 ± 0.4, prenephrectomy 10.1 ± 0.3, ** P ≤ 0.05, preliminary; for effect on developing hypercalcemia: given 24 hours prior to nephrectomy
# Protocol: 1. The Induced Secondary Hyperparathyroid Rat
# In order to test the biological activity of these substances, test compounds were injected intraperitoneally into 100 gram female rats. Twenty-four hours later the animals were subjected to bilateral nephrectomy. Animals were bled 4 hours post nephrectomy. […] The resulting decline in the concentration of ionized calcium in the blood served as a stimulus for the release of PTH. In animals with functional parathyroid glands, a secondary hyperparathyroidism developed with an ensuing hypercalcemia due to PTH-induced bone resorption. Agents which inhibited bone resorption attenuate this hypercalcemic response.
# [10] = test system: PTH-stimulated calcium release from bone; experiment: In vivo classical endocrine ablation/replacement model (PTH given to parathyroidectomized rats); parameters: species or system rat; settings: PTH group
# Protocol: Parathyroid hormone was administered to parathyroidectomized rats who received no food for 12 hours before PTH injection, to minimize gut calcium absorption. In an attempt to attenuate the developing increase in plasma calcium, drug was administered 24 hours prior to PTH injection.
# Parathyroid hormone was administered to parathyroidectomized rats who had received no food for 12 hours before PTH injection, to minimize gut calcium absorption.
molecule,measurement,setting,value
"CCOC(=O)CCCCC(=O)NS(=O)(=O)c1nnc(NC(C)=O)s1 [AAOEt, acetazolamide-adipate-ethyl ester]",bound to hydroxyapatite,[1],3%
same,carbonic anhydrase inhibition after hydrolytic conditions,"carbonic anhydrase; following incubation under hydrolytic conditions, 5×10^-6 M (FIG. 2)",inhibited carbonic anhydrase activity
same,lipophilicity relative to parent compounds,physchem; HPLC,"more lipophilic than is its parent, acetazolamide"
same,chromatographic logP,physchem,0.238
NS(=O)(=O)c1nnc(NC(=O)CCC(=O)NCCCCCC(O)(P(=O)(O)O)P(=O)(O)O)s1 [PAA],Ki,carbonic anhydrase; read-out: KI as carbonic anhydrase inhibitor,120 nM
same,water solubility relative to parent thiadiazolesulfonamide,physchem,more water soluble than the parent thiadiazolesulfonamide
CN(C)C1C(=O)C(C(N)=O)=C(O)C2(O)C(=O)C3=C(O)c4c(OC(CO)COC(=O)Oc5ccc6nc(S(N)(=O)=O)sc6c5)cccc4C(C)(O)C3CC12 (stereo not shown) [TAE-2],PTH-stimulated bone resorption / calcium release,[2]; calvaria in culture (FIGS. 8-10),attenuates PTH stimulated calcium release from calvaria in culture (FIG. 9) in a concentration dependent fashion
"Nc1nnc(S(N)(=O)=O)s1 [WP-061786, 2-amino-1,3,4-thiadiazole-5-sulfonamide]",solubility,Solubility pH 7.6,28.4 mM
same,% Bound to Hydroxyapatite,[1],0%
same,ether:buffer partition coefficient,[3],0.15
same,Potency as CA inhibitor,carbonic anhydrase,20%
same,chromatographic logP,physchem,-0.409
CC(=O)Nc1nnc(S(N)(=O)=O)s1 [acetazolamide],solubility,Solubility pH 7.6,6.7 mM
same,bound to hydroxyapatite,[1],19%
same,change in plasma calcium concentration,[4]; normal animals,no change in plasma calcium concentration is observed
same,acidosis,[4],causes a systemic acidosis
same,acidosis,[4]; listed as Acetazolamide,produces a metabolic acidosis
same,inhibition of PTH-induced resorption,[5]; tissue culture (Minkin and Jennings),inhibition of PTH-induced resorption
same,half-life,[6],approximately 50 minutes
same,inhibition of response to administered PTH,[7],abolish it
same,inhibition of the increase in total plasma calcium in ISHR,[8],completely inhibits this response
same,PTH-stimulated calcium release from calvaria,[2],inhibited
same,carbonic anhydrase inhibition,carbonic anhydrase,inhibits carbonic anhydrase activity
same,Potency as CA inhibitor,carbonic anhydrase,100%
same,Blood Calcium,[9]; 0.2 mol/kg as printed,12.6 ± 0.2 mg/dL
same,effect on developing hypercalcemia,[9],not effective
CN(C)C1C(=O)C(C(N)=O)=C(O)C2(O)C(=O)C3=C(O)c4c(O)cccc4C(C)(O)C3CC12 (stereo not shown) [tetracycline],bound to hydroxyapatite,[1],90%
same,% Bound to Hydroxyapatite,[1]; Table 6,85%
same,binding to / elution from hydroxyapatite,"[1]; result in words, sodium phosphate buffer, pH 7",eluted with 1.0M sodium phosphate
same,inhibition of PTH in vitro,[5]; at high concentrations,typically inhibits PTH in vitro
same,PTH-stimulated calcium release from calvaria,[2],without effect
same,carbonic anhydrase inhibition,carbonic anhydrase,without effect
same,effect on developing hypercalcemia,[9],does not appear to be effective
same,Blood Calcium,[9],11.8 ± 0.4 mg/dL
"PTH: parathyroid hormone (protein, UniProt P01270 32-115, looked up, Parathyroid hormone) Parathyroid hormone: SVSEIQLMHNLGKHLNSMERVEWLRKKLQDVHNFVALGAPLAPRDAGSQRPRKKEDNVLVESHEKSLGEADKADVNVLTKAKSQ","Blood Calcium, Before PTH",[10],5.2 ± 0.3 mg/dL
same,"Blood Calcium, 6 hours post-treatment","[10]; control 5.5 ± 0.2, ** p < 0.05 vs control",7.2 ± 0.2 mg/dL
same,net release of calcium from cultured bone,[2]; treatment with PTH,significant stimulation
